Entries after “also recorded” stand apart in the source; their conditions may differ.
Tests used:
[1] = system: UW-228-2 cell line; assay: MTT proliferation assay, UW-228-2 medulloblastoma cells; assay type: cell-based, human; conditions: for proliferation of cultured medulloblastoma cells: UW-228-2, monotherapy, nine concentrations 10^-14 to 10^-6 M, 72 hours
Experimental: Human medulloblastoma cell line, Daoy was purchased from ATCCC, UW-228 was obtained from the courtesy of Professor Silber (Univerity of Washington, Seattle, Wash., USA).
Daoy and UW-228-2 cell lines were maintained in culture medium (each 500 ml Minimum Essential Medium Eagle, Alpha Modification (M8042, Sigma, St Louis, USA) with 50 ml FCS (Gibco), 40 mg Gentamicin (Sandoz), 5 ml sodium-pyruvate (S8636, Sigma, St Louis, USA), 5 ml non-essential-amino acid solution (M7145, Sigma, St Louis, USA), 10 ml L-glutamin (Sigma, St Louis, USA) at 37° C. in humified 5% CO2.
In each well 3×10^3 Daoy or UW-228-2 cells were seeded in 96-well plates (Sarstedt), solved in 100 μl of its own medium with 10% FCS. 24 hours after seeding, cells were treated for 72 hours by drugs solved in further 100 μl medium. First, both cell lines were treated by (−)-BPAP and (−)-deprenil in monotherapy to determine its dose-effect curves in concentration of 10^−6, 10^−7, 10^−8, 10^−9, […], 10^−11, 10^−12, 10^−13 and 10^−14 M. In combined treatment 10^−3, 3.3×10^−4, […] and 3.7×10^−5 M of temozolomide (Schering Plough, USA) or 0.04, 0.2, 1, 5 μM of Cisplatin (Ebewe Pharma, Austria) or 0.04, 0.2, 1, 5 μM of etoposide (Ebewe Pharma, Austria) or 10^−7, 10^−6, 10^−5 and 10^−4 μM (UW228-2) or 0.001, 0.005, 0.025 and 0.125 μM (Daoy) of Vincristin (Richter Gedeon, Hungary) were applied in monotherapy or combined with 10^−13 or 10^−8 M of (−)-BPAP or (−)-deprenil.
Cell proliferation was evaluated by MTT (3-(4,5-Dimethylthiazol-2-yl)-2,5-diphenyltetrazolium bromide) assay (M5655, Sigma) after 72-hour treatment by the method described in manufacturer's protocol.

[2] = system: isolated locus coerulei of rats; conditions: Knoll et al., 1999, Miklya, Knoll B, 2002; cited from earlier work
[3] = system: mouse lung adenocarcinoma tumors; assay: Mouse lung adenocarcinoma xenograft model in FVB/N mice; assay type: in vivo
Experimental: Mouse primary lung adenocarcinoma tumors maintained subcutaneously were utilized in the present study. Tumors with sizes of 3 mm in diameter were implanted subcutaneously in a total of 18 FVB/N female mice with a bodyweight of 25 g. From the day after tumor inoculation, 6-6 animals started receiving (−)-BPAP daily as a subcutaneous injection at a concentration of either 0.0001 mg/kg (low dose) or 0.05 mg/kg (high dose). Tumor sizes were measured twice a week using a digital caliper. Tumor volumes were calculated by the following formula: […]
Statistical analyses were made by Graphpad Prism 4.03 software. Significances of changes between control and (−)-BPAP-treated groups were assessed by using Mann-Whitney U-test. Significance was declared at the standard p<0.05 level.

[4] = system: fibromyxosarcoma; assay: Longevity study: manifestation of subcutaneous fibromyxosarcoma (TMS effect); assay type: in vivo, rat; conditions: for tumor manifestation suppressing (TMS) effect versus saline: Kaplan-Meier, P<0.001
Experimental: The longevity study was performed on 200 male rats received from the breeding colony of the Semmelweis University. The rats were born at the end of February of 2010. After 2-month acclimation period the rats were divided randomly into 5 even groups. The longevity study started at the beginning of May 2010. Animals were observed until their natural deaths. The data in this study represent the changes observed until Oct. 31, 2012, since in the saline-treated group the last animal died on Oct. 31, 2012. As will be shown later a few rats in the enhancer-treated groups were still alive on Nov. 1, 2012.
During the longevity study 5 rats were housed together in polycarbonate cages (height: 18 cm; wide: 42 cm; length: 44 cm) with a stainless steel on the top. Cage bedding was renewed 3 times a week (Monday, Wednesday and Friday). Bodyweight was measured once every month. The treatment started at the end of the second month of their age.
We carefully observed the appearance of the subcutaneous tumor and followed the development of the tumor until death. Histological analysis was performed post mortem on several rats taken from each group as examples.
The subcutaneous tumors developed in the rats were measured by the two largest diameters. After sacrificing the animals, the tumors were removed, photographs were taken. Tissues were fixed immediately after removal in 10% neutral formalin (in PBS, pH7.0) for 24 hours at room temperature, dehydrated and embedded in paraffin. 3-4 micrometer thick sections were cut and stained by hematoxylin and eosin (HE) as a routine.
Significance in the performance between the groups in the shuttle box was evaluated by multi-factor analysis of variance (ANOVA). Significance regarding the span of time from tumor manifestation until death in rats and regarding aging related changes in bodyweight treated chronically with the enhancer substances was analyzed by One-way ANOVA. Statistical analysis of survival rate and tumor manifestation was performed by the Kaplan-Meier method.

[5] = system: lung carcinoma; assay: Longevity study on FVB/N mice: spontaneous lung carcinoma at autopsy; assay type: in vivo, mouse; conditions: for Number of detected lung carcinoma: 18-month, 4 dissected mice
Experimental: Body weight is measured bimonthly.
For monitoring, we planned to sacrifice mice from each group at 6-month, 1-year, 1.5-year and 2-year time-points; the rest of the animals are kept until spontaneous death.
The results are shown in Table 4 and on FIGS. 19 and 20. Significance levels were calculated with two-sided Chi-square test.

[6] = system: isolated rat brain stem; conditions: optimal concentration for the specific enhancer effect, 3-min collection period; review Knoll, 2005; cited from earlier work
[7] = system: catecholaminergic neurons; assay: Comparison of CAE potency
From the text: All these differences in the efficiency between BPAP and Deprenyl came together from measuring their enhancer effect on the following four enhancer-sensitive brain regulations: dopaminergic, noradrenergic, serotonergic and TMS. Using the enhancer substances as specific experimental tools, we quite unexpectedly discovered the operation of an enhancer-sensitive TMS regulation in the rat brain. As expected, the majority of the enhancer-sensitive regulations and the endogenous enhancer substances pertaining to these regulations are unknown. Enhancer-research is obviously in its pioneer stage.

CCCN[C@H](CCC)Cc1cc2ccccc2o1 [(−)-BPAP, (2R)-1-(1-benzofuran-2-yl)-N-propylpentane-2-amine]
effectiveness of tumor-cell proliferation inhibiting agents in combination ([1]; UW-228-2, 10^-13 or 10^-8 M combined with temozolomide, Cisplatin, etoposide or Vincristin): did not change the effectiveness | proliferation of cultured medulloblastoma cells [1]: did not inhibit the proliferation | proliferation of cultured medulloblastoma cells ([1]; listed as BPAP): none of the applied concentrations did Deprenyl or BPAP influence the proliferation | concentration range of the specific enhancer effect on noradrenergic neurons [2]: femto/picomolar | tumor volume versus control ([3]; high dose 0.05 mg/kg s.c. daily): did not reach statistical significance | tumor volume versus control ([3]; low dose 0.0001 mg/kg s.c. daily, from day 12 after implantation, p<0.05): significant differences in tumor volume | tumor manifestation suppressing (TMS) effect versus saline ([4]; 0.0001 mg/kg): significantly decreased; also recorded: more potent in suppressing tumor manifestation than 0.1 mg/kg (−)-deprenyl | tumor manifestation suppressing (TMS) effect versus saline ([4]; 0.0001 mg/kg, listed as BPAP): highly efficient; also recorded: suppressed the manifestation of the fibromyxosarcoma significantly | month of age in which the first animal manifested the tumor ([4]; 0.0001 mg/kg, N=40): 20 month | rats in the group manifested the tumor to the end of the 32nd month ([4]; 0.0001 mg/kg, N=40): 8 rats | rats manifested the fibromyxosarcoma when the group completed the 30th month of life ([4]; 0.0001 mg/kg, N=40): 8 rats | month of age in which the first animal manifested the tumor ([4]; 0.0001 mg/kg, N=40, listed as BPAP): 25 month | tumor manifestation suppressing (TMS) effect versus saline ([4]; 0.05 mg/kg): significantly decreased | tumor manifestation suppressing (TMS) effect versus saline ([4]; 0.05 mg/kg, listed as BPAP): suppressed the manifestation of the fibromyxosarcoma significantly | month of age in which the first animal manifested the tumor ([4]; 0.05 mg/kg, N=40): 13 month | rats in the group manifested the tumor to the end of the 32nd month ([4]; 0.05 mg/kg, N=40): 7 rats | rats manifested the tumor when the group completed the 30th month of life ([4]; 0.05 mg/kg, N=40): 7 rats | span of time from tumor manifestation until death ([4]; chronic treatment, versus saline (FIG. 13), One-way ANOVA): no significant difference | Number of detected lung carcinoma ([5]; 0.0001 mg/kg daily): 0 | Number of detected lung carcinoma ([5]; 0.05 mg/kg daily): 1 | manifestation of lung carcinoma ([5]; extremely low dose (0.0001 mg/kg), 1.5-year (FIG. 20)): completely prevented the manifestation of lung carcinoma | released amount of labeled transmitter ([3H]-norepinephrine, [3H]-dopamine or [3H]-serotonin) [6]: significantly higher | potency as CAE substance relative to Deprenyl [7]: ~100 times

Reference: US10258599B2, “Compounds for use in the prevention or treatment of cancer” (SEMMELWEIS UNIVERSITY, priority 2014, dated 2019)
